According to patent publication US20260158102A1, “CYCLIC PEPTIDE DERIVATIVE COMPOSITION FOR TREATING OR PREVENTING NEUROPATHIC PAIN AND/OR INFLAMMATORY PAIN” (DKS Co. Ltd., priority 2022, published 2026):

Test system: rat carrageenan-induced paw edema model
Experiment: Mechanical hyperalgesia (Randall-Selitto pain threshold) in rat carrageenan-induced paw edema model
Assay type: in vivo
Settings: for Pain threshold (mmHg) 2 hour: 2 hours after carrageenan inflammation, control 31.6 ± 1.4
Experimental: On the day before the administration of the phlogistic agent, the pain threshold of each individual by the Randall-Selitto method was measured using an Analgesy meter.
On the day before the use of the phlogistic agent, a required amount of carrageenan (Tokyo Chemical Industry Co., Ltd.) was weighed, ground using an agate mortar and pestle, and suspended while adding physiological saline little by little, thereby preparing a 1 w/v % carrageenan physiological saline solution. After preparation, the solution was stored in a refrigerator and used the next day.
The test substance was intravenously administered, and after 5 minutes, 0.1 mL of a phlogistic agent (1 w/v % carrageenan physiological saline solution) was subcutaneously administered to the right hind paw of the animal to induce inflammation.
2, 3, 4, and 5 hours after inflammation, the pain threshold was measured by the Randall-Selitto method using an Analgesy meter.
Dunnett's multiple comparison test was performed between the control group and the test substance group at each measurement time point.

## CC[C@@]1(C)Oc2cc(ccc2O)C[C@H](N(C)C)C(=O)N[C@@H](C(C)C)C(=O)N[C@@H]1C(=O)N[C@@H](CCC(=O)O)C(=O)O [Compound 23]
1 mg/kg i.v., mean ± SE, N=7
  Pain threshold (mmHg) 2 hour: 31.6 ± 2.2 mmHg
1 mg/kg i.v., 4 hours after carrageenan inflammation, mean ± SE, N=7, control 30.3 ± 0.7
  Pain threshold (mmHg) 4 hour: 34.0 ± 1.3 mmHg
1 mg/kg i.v., 5 hours after carrageenan inflammation, mean ± SE, N=7, control 28.3 ± 1.9
  Pain threshold (mmHg) 5 hour: 30.1 ± 1.0 mmHg
5 mg/kg i.v., mean ± SE, N=7
  Pain threshold (mmHg) 2 hour: 34.9 ± 1.7 mmHg
25 mg/kg i.v., mean ± SE, N=7
  Pain threshold (mmHg) 2 hour: 36.7 ± 2.4 mmHg
Rat carrageenan-induced paw edema model, i.v. 1-25 mg/kg, overall conclusion
  Effect on inflammatory pain (pain threshold by the Randall-Selitto method): suppressing effect on inflammatory pain
